# From US6897209B2, “Labelled factor XIIIa substrates” (GE Healthcare Limited, priority 1997, dated 2005)
# Legend:
# Factor XIIIa = biological target: T1, Factor XIIIa (Homo sapiens, UniProt P00488); assay: Factor XIIIa dependency of incorporation (dimethylcasein uptake, normal vs Factor XIII deficient plasma); format: biochemical; conditions: 1 KBq/ml, 60 minutes; uptake in normal plasma minus Factor XIII deficient plasma
# T1 construct: Factor XIII is transformed into its active form Factor XIIIa by thrombin in the presence of calcium ions; from tissue; host or cells: human plasma
# T1 sequence (P00488 39-732 limits assumed): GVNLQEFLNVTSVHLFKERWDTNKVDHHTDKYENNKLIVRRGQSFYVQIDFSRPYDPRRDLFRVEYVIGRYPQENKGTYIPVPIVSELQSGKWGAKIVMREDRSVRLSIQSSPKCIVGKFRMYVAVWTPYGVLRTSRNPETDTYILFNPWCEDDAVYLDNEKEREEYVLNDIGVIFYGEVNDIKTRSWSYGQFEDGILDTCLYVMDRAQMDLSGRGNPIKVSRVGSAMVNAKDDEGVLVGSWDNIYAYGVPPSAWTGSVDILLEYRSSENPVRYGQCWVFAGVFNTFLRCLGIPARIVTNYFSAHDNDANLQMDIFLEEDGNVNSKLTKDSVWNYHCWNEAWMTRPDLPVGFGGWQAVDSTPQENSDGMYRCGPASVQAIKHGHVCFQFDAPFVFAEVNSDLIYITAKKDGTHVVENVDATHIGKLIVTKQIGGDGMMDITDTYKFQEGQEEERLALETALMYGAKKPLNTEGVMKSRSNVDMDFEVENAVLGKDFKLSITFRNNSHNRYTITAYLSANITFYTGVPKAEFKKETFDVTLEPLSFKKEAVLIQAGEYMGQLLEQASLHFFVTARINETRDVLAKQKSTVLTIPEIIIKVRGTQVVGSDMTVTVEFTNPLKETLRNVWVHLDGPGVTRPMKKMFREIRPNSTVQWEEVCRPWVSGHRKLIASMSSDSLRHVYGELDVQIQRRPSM
# Description: The assay was changed by replacing the mercaptoethanol with aprotinin at a final concentration of 2 μg/ml, and dimethylcasein (DMC) was used instead of casein.
# [1] = Normal rat biodistribution; format: in vivo; conditions: i.v., male Wistar rats, Mean±SD n=3
# Description: The resolution of a clot image is dependant on the combination of rate of incorporation of the radiopharmaceutical and its blood/tissues clearance rate. For this reason the biodistribution of several compounds has been determined in rats. Male Wistar (100-150 g) rats were injected i.v. with 0.1-0.2 ml of radiolabelled tracer solution (8 MBq/ml) and dissected at different times post-injection. The % ID in each of the selected tissues was measured. Some animals were kept in metabolism cages to be able to determine the % ID excreted in urine and faeces. The dissection times used for the majority of the agents was 2, 15, 30, 60, 240 min. Data are shown as % ID, Mean±SD, (n=3).
# [2] = system: clots induced in rat inferior vena cava; assay: Incorporation into clots induced in a rat model (rat inferior vena cava model); format: in vivo; conditions: rat IVC model; for Clot/Blood / Clot/Heart / Clot/Liver / Clot/Lung: 60 min; for % ID/g (clot uptake) / Relative conc (cpm/g of clot by dose/g animal): compound injected 5 min post-induction, clot removed after 60 min
# Description: The rats (Male Wistar, 250-350 g) were anaesthetised with 15% urethane. After laparotomy, the vena cava was isolated and freed of surrounding fat tissue. […] The average weight of the clots formed in this model was around 27 mg, n=32, (5-50 mg range). The so compounds were injected 5 min post-induction. After 60 min the animals were sacrificed and the clot removed, weighed and counted. Other tissues e.g. blood, lung, heart, were also dissected and counted. The uptake of tracer into the clot was determined as the relative concentration (cpm/g of clot by dose/g animal ) and clot to background tissue.
# human plasma clots [3] = assay: Incorporation into human plasma clots (in vitro plasma clot assay); format: biochemical; conditions: control vials without thrombin and calcium chloride, 60 minutes
# Description: (§1) Incorporation of radiolabelled substrates into fibrin was investigated by induction of an in vitro human plasma clot in the following manner. To a siliconised 5 ml glass vial was added, (a) 800 μl of Tris(hydroxymethyl)aminomethane buffered saline pH 7.5 containing calcium chloride (50 mM Tris, 150 mM sodium chloride, 4 mM calcium chloride.), (b) 40 μl of physiological salt solution containing 100 units of thrombin per ml, (c) 400 μl of human plasma containing the radiolabelled substrate at a concentration of typically 10 kBq/ml. To aid induction of clot a roughened glass rod was added to the reaction vial. Control vials were prepared similarly but with the omission of thrombin and calcium chloride.
# (§2) The proportion of total radioactivity was calculated by counting in suitable detection apparatus.
# (§3) The fraction of radioactivity retained on the filter, after subtraction of the non-specific binding determined from the control, is a measure of incorporation into the filtered clots.
# human plasma clots [4] = biological target: T2, human plasma clots (Homo sapiens, UniProt P00488); assay: as above; format: biochemical; conditions: for % specific uptake*: % retained with thrombin − % retained no thrombin; for % retained in plasma clot assay (with thrombin): human plasma with thrombin and calcium chloride, 60 minutes, ca. 20° C.
# T2 construct: Factor XIII is transformed into its active form Factor XIIIa by thrombin in the presence of calcium ions; from tissue; host or cells: human plasma, clotted in vitro with thrombin and calcium chloride
# T2 sequence (P00488 39-732): T1 sequence (P00488 39-732 limits assumed)
# Description: as §1, §2, §3
smiles,measurement,setting,value
"CC(CNCc1ccccc1O)(CNCc1ccccc1O)CNC(=O)c1ccc(S(=O)(=O)NCCCCCN)cc1 [Compound 25, N,N′-bis-(2-hydroxybenzyl)-2-(4-N-(5-aminopentyl)amidosulphonyl)benzamidomethyl-2-methyl-propane-1,3-diamine]",% specific DMC casein uptake,Factor XIIIa,26%
same,% ID Blood,[1]; 2 min post-injection,23.0 ± 2.9 % ID
same,% ID GI Tract,[1]; 2 min post-injection,8.53 ± 0.66 % ID
same,% ID Heart,[1]; 2 min post-injection,0.74 + 0.1 % ID
same,% ID Kidney,[1]; 2 min post-injection,5.37 ± 1.3 % ID
same,% ID Liver,[1]; 2 min post-injection,13.6 ± 2.47 % ID
same,% ID Lung,[1]; 2 min post-injection,3.42 ± 0.39 % ID
same,% ID Muscle,[1]; 2 min post-injection,25.7 ± 2.0 % ID
same,% ID Urine,[1]; 2 min post-injection,0.11 ± 0.06 % ID
same,% ID Blood,[1]; 15 min post-injection,3.9 ± 0.17 % ID
same,% ID GI Tract,[1]; 15 min post-injection,45.68 ± 4.1 % ID
same,% ID Heart,[1]; 15 min post-injection,0.16 + 0.01 % ID
same,% ID Kidney,[1]; 15 min post-injection,7.13 ± 0.4 % ID
same,% ID Liver,[1]; 15 min post-injection,13.5 ± 0.14 % ID
same,% ID Lung,[1]; 15 min post-injection,1.37 ± 0.03 % ID
same,% ID Muscle,[1]; 15 min post-injection,8.93 ± 0.38 % ID
same,% ID Urine,[1]; 15 min post-injection,4.62 ± 2.9 % ID
same,% ID Blood,[1]; 30 min post-injection,2.12 ± 0.34 % ID
same,% ID GI Tract,[1]; 30 min post-injection,54.7 ± 2.09 % ID
same,% ID Heart,[1]; 30 min post-injection,0.1 + 0.03 % ID
same,% ID Kidney,[1]; 30 min post-injection,5.6 ± 0.1 % ID
same,% ID Liver,[1]; 30 min post-injection,9.66 ± 1.65 % ID
same,% ID Lung,[1]; 30 min post-injection,1.17 ± 0.01 % ID
same,% ID Muscle,[1]; 30 min post-injection,6.43 ± 0.41 % ID
same,% ID Urine,[1]; 30 min post-injection,11.6 ± 2.0 % ID
same,% ID Blood,[1]; 60 min post-injection,1.84 ± 0.19 % ID
same,% ID GI Tract,[1]; 60 min post-injection,55.87 ± 2.5 % ID
same,% ID Heart,[1]; 60 min post-injection,0.08 + 0.03 % ID
same,% ID Kidney,[1]; 60 min post-injection,4.24 ± 0.4 % ID
same,% ID Liver,[1]; 60 min post-injection,6.73 ± 0.48 % ID
same,% ID Lung,[1]; 60 min post-injection,0.96 ± 0.11 % ID
same,% ID Muscle,[1]; 60 min post-injection,4.95 ± 0.09 % ID
same,% ID Urine,[1]; 60 min post-injection,17.5 ± 1.7 % ID
same,% ID Blood,[1]; 240 min post-injection,0.62 ± 0.16 % ID
same,% ID GI Tract,[1]; 240 min post-injection,71.3 ± 0.7 % ID
same,% ID Heart,[1]; 240 min post-injection,0.02 + 0.01 % ID
same,% ID Kidney,[1]; 240 min post-injection,3.19 ± 0.1 % ID
same,% ID Liver,[1]; 240 min post-injection,3.97 ± 0.53 % ID
same,% ID Lung,[1]; 240 min post-injection,0.21 ± 0.05 % ID
same,% ID Muscle,[1]; 240 min post-injection,1.3 ± 0.38 % ID
same,% ID Urine,[1]; 240 min post-injection,16.81 ± 0.43 % ID
same,Clot/Blood,[2],3.3
same,Clot/Heart,[2],5
same,Clot/Liver,[2],0.65
same,Clot/Lung,[2],1.5
same,% ID/g (clot uptake),[2],0.29 ± 0.09 % ID/g
same,Relative conc (cpm/g of clot by dose/g animal),[2],0.8 ± 0.2
same,% retained in plasma clot assay (no thrombin),human plasma clots [3],1.9%
same,% specific uptake*,human plasma clots [4],12.9%
same,% retained in plasma clot assay (with thrombin),human plasma clots [4],15%
"NCCCCCNS(=O)(=O)c1ccc(C(=O)NCCCNC(=O)c2ccc(NN)nc2)cc1 [Compound 24, N-[6-hydrazinopyridine-3-carbonyl]-N′-(4-N-(5-aminopentyl)amidosulphonyl)benzoyl propane-1,3-diamine]",% specific DMC casein uptake,Factor XIIIa,22.5%
same,% ID Blood,[1]; 2 min post-injection,18.2 ± 1.39 % ID
same,% ID GI Tract,[1]; 2 min post-injection,7.48 ± 0.45 % ID
same,% ID Heart,[1]; 2 min post-injection,0.73 + 0.1 % ID
same,% ID Kidney,[1]; 2 min post-injection,10.2 ± 3.07 % ID
same,% ID Liver,[1]; 2 min post-injection,5.38 ± 0.75 % ID
same,% ID Lung,[1]; 2 min post-injection,1.99 ± 0.12 % ID
same,% ID Muscle,[1]; 2 min post-injection,28.5 ± 0.25 % ID
same,% ID Urine,[1]; 2 min post-injection,0.11 ± 0.1 % ID
same,% ID Blood,[1]; 15 min post-injection,7.11 ± 1.29 % ID
same,% ID GI Tract,[1]; 15 min post-injection,23.3 ± 6.5 % ID
same,% ID Heart,[1]; 15 min post-injection,0.3 + 0.08 % ID
same,% ID Kidney,[1]; 15 min post-injection,4.11 ± 1.31 % ID
same,% ID Liver,[1]; 15 min post-injection,6.7 ± 1.21 % ID
same,% ID Lung,[1]; 15 min post-injection,0.78 ± 0.16 % ID
same,% ID Muscle,[1]; 15 min post-injection,17.9 ± 4.38 % ID
same,% ID Urine,[1]; 15 min post-injection,8.64 ± 5.6 % ID
same,% ID Blood,[1]; 30 min post-injection,3.86 ± 0.62 % ID
same,% ID GI Tract,[1]; 30 min post-injection,31.5 ± 11.9 % ID
same,% ID Heart,[1]; 30 min post-injection,0.13 + 0.03 % ID
same,% ID Kidney,[1]; 30 min post-injection,2.52 ± 1.1 % ID
same,% ID Liver,[1]; 30 min post-injection,3.67 ± 0.62 % ID
same,% ID Lung,[1]; 30 min post-injection,0.39 ± 0.06 % ID
same,% ID Muscle,[1]; 30 min post-injection,10.2 ± 1.09 % ID
same,% ID Urine,[1]; 30 min post-injection,31.0 ± 9.41 % ID
same,% ID Blood,[1]; 60 min post-injection,1.6 ± 0.57 % ID
same,% ID GI Tract,[1]; 60 min post-injection,38.8 ± 9.6 % ID
same,% ID Heart,[1]; 60 min post-injection,0.06 + 0.03 % ID
same,% ID Kidney,[1]; 60 min post-injection,1.4 ± 0.38 % ID
same,% ID Liver,[1]; 60 min post-injection,1.6 ± 0.29 % ID
same,% ID Lung,[1]; 60 min post-injection,0.18 ± 0.06 % ID
same,% ID Muscle,[1]; 60 min post-injection,3.62 ± 0.9 % ID
same,% ID Urine,[1]; 60 min post-injection,44.9 ± 7.32 % ID
same,% ID Blood,[1]; 240 min post-injection,0.29 ± 0.06 % ID
same,% ID GI Tract,[1]; 240 min post-injection,46.3 ± 4.4 % ID
same,% ID Heart,[1]; 240 min post-injection,0.02 + 0.01 % ID
same,% ID Kidney,[1]; 240 min post-injection,0.92 ± 0.37 % ID
same,% ID Liver,[1]; 240 min post-injection,0.3 ± 0.03 % ID
same,% ID Lung,[1]; 240 min post-injection,0.05 ± 0.02 % ID
same,% ID Muscle,[1]; 240 min post-injection,1.1 ± 0.32 % ID
same,% ID Urine,[1]; 240 min post-injection,49.51 ± 4.62 % ID
same,Clot/Blood,[2],1.8
same,Clot/Heart,[2],3.9
same,Clot/Liver,[2],0.93
same,Clot/Lung,[2],2.5
same,% ID/g (clot uptake),[2],0.21 ± 0.02 % ID/g
same,Relative conc (cpm/g of clot by dose/g animal),[2],0.62 ± 0.1
same,% retained in plasma clot assay (no thrombin),human plasma clots [3],0.2%
same,% specific uptake*,human plasma clots [4],13.8%
same,% retained in plasma clot assay (with thrombin),human plasma clots [4],14%
